Assay results as given in patent US8148404B2, “Modulators of CB1 receptors” (7TM Pharma A/S, priority 2006, dated 2012).

target: T1, human CB1 receptor (Homo sapiens, UniProt P21554); assay: Cannabinoid Receptor-1 functional assay: inhibition of CP55940-induced [35S]GTPγS binding to membranes of CHO-K1 cells expressing human CB1; assay type: biochemical; details: 3 nM CP55940, [35S]GTPγS SPA, hCB1 membranes; read-out: IC50 value for antagonizing a CB1 receptor agonist
T1 construct: expressed in transfected cells; membranes used
Method in brief: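 Membranes (5 μg/well) from CHO-K1 cells stably expressing human CB1 incubated 1 hr at room temperature with 1 nM [35S]GTPγS, 3 nM CP55940 and test compound in HEPES pH 7.5 buffer with 1 μM GDP, saponin. Bound label read by SPA after 30 min with beads; IC50 by non-linear regression.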

T1 sequence (P21554 whole entry): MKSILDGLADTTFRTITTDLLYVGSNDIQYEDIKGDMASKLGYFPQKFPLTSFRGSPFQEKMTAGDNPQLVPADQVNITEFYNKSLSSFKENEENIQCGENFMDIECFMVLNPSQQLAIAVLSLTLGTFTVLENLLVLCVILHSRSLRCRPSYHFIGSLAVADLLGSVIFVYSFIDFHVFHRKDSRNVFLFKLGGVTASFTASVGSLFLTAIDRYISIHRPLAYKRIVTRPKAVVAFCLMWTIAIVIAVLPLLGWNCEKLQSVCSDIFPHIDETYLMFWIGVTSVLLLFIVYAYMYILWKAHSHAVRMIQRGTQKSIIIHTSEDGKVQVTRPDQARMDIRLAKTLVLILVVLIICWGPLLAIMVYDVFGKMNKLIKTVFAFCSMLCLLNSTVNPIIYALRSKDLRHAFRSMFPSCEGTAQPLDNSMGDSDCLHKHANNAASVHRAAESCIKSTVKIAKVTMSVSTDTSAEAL

IC50	Structure (SMILES)
< 300 nM	O=C(c1nn(-c2ccccc2Cl)c(-c2ccc(Cl)cc2)c1Cc1nn[nH]n1)N1CCC(Oc2ccc(F)c(F)c2)CC1 [[3.8], [1-(2-Chloro-phenyl)-5-(4-chloro-phenyl)-4-(2H-tetrazol-5-ylmethyl)-1H-pyrazol-3-yl]-[4-(3,4-difluorophenoxy)-piperidin-1-yl]-methanone]
< 300 nM	O=C(c1nn(-c2ccccc2Cl)c(-c2ccc(Cl)cc2)c1Cc1nn[nH]n1)N1CCC(Oc2cccc(F)c2)CC1 [[3.9], [1-(2-Chloro-phenyl)-5-(4-chloro-phenyl)-4-(2H-tetrazol-5-ylmethyl)-1H-pyrazol-3-yl]-[4-(3-fluorophenoxy)-piperidin-1-yl]-methanone]
< 300 nM	O=C(c1nn(-c2ccccc2F)c(-c2ccc(Cl)cc2)c1Cc1nn[nH]n1)N1CCC(c2ccccc2F)CC1 [[4.2], [1-(2-Fluoro-phenyl)-5-(4-chloro-phenyl)-4-(2H-tetrazol-5-ylmethyl)-1H-pyrazol-3-yl]-[4-(2-fluoro-phenyl)-piperidin-1-yl]-methanone]

The remaining lines, values behind:

Structure (SMILES)	IC50
O=C(c1nn(-c2ccccc2Cl)c(-c2ccc(Cl)cc2)c1Cc1nn[nH]n1)N1CCC(Oc2ccccc2)CC1 [[3.5], [1-(2-Chloro-phenyl)-5-(4-chloro-phenyl)-4-(2H-tetrazol-5-ylmethyl)-1H-pyrazol-3-yl]-[4-phenoxy-piperidin-1-yl]-methanone]	< 300 nM
O=C(c1nn(-c2ccccc2Cl)c(-c2ccc(Cl)cc2)c1Cc1nn[nH]n1)N1CCC(Oc2ccc(Cl)cc2)CC1 [[3.6], [1-(2-Chloro-phenyl)-5-(4-chloro-phenyl)-4-(2H-tetrazol-5-ylmethyl)-1H-pyrazol-3-yl]-[4-(4-chlorophenoxy)-piperidin-1-yl]-methanone]	< 300 nM
O=C(c1nn(-c2ccccc2Cl)c(-c2ccc(Cl)cc2)c1Cc1nn[nH]n1)N1CC(Oc2ccc(F)cc2)C1 [[3.7], [1-(2-Chloro-phenyl)-5-(4-chloro-phenyl)-4-(2H-tetrazol-5-ylmethyl)-1H-pyrazol-3-yl]-[3-(4-fluorophenoxy)-azetidin-1-yl]-methanone]	< 300 nM
O=C(c1nn(-c2ccccc2F)c(-c2ccc(Cl)cc2)c1Cc1nn[nH]n1)N1CCC(Oc2ccc(Cl)cc2)CC1 [[4.1], [1-(2-Fluoro-phenyl)-5-(4-chloro-phenyl)-4-(2H-tetrazol-5-ylmethyl)-1H-pyrazol-3-yl]-[4-(4-chlorophenoxy)-piperidin-1-yl]-methanone]	< 300 nM
O=C(O)Cc1c(C(=O)N2CCC(c3ccccc3F)CC2)nn(-c2ccccc2F)c1-c1ccc(Cl)cc1 [[4.4], {1-(2-Fluoro-phenyl)-5-(4-chloro-phenyl)-3-[4-(2-fluoro-phenyl)-piperidine-1-carbonyl]-1H-pyrazol-4-yl}-acetic acid]	< 300 nM
